US9023831B2, “Methods and compositions of inhibiting complement and cellular activation with Dextran Sulfate” (Novelmed Therapeutics, Inc., priority 2007, dated 2015)
Where “and” joins values, the source holds several entries; their conditions need not be identical. Identical values can stand only once. Entries after “also recorded” stand apart in the source; their conditions may differ. Like-named read-outs stand apart in the source and are kept apart here.

How the values were obtained:
[1] = tested on: sC5b-9 in Normal Heparinized Whole Human Blood; test: sC5b-9 ELISA after tubing loop model of cardiopulmonary bypass; conditions: for inhibition of sC5b-9 formation / complement activity in whole blood / inhibition of sC5b-9 formation: 2 hour tubing loop rotation
Experimental: An aliquot of the plasma following the 2 hour tubing loop rotation in bypass was evaluated for sC5b-9 using ELISA kit from Quidel Corporation.
Preparation of Tubing Loops: Tubing loops (PVC, cat # . . . VWR Scientific) were prepared by cutting a piece of polyvinyl tubing and connecting the ends of the tubing with a piece of silicone plug. Blood was drawn using 16 gauge needled from fasting healthy donors. The blood volume of 45 was drawn into a 50 ml polypropylene tube containing a final concentration of 5 units of heparin per ml of blood. The blood was diluted with 35 ml plasmalyte. The diluted blood (2 ml) was filled in each tubing loop. Duplicate tubing loops were prepared for each treatment. Blood samples were prepared as follows; no treatment, treated with various concentrations of Dextran Sulfate.
(2) Tubing Loop Operation and Sampling: The concentration of Dextran Sulfate was chosen based upon in vitro assay and the concentration of plasma. Concentrations of Dextran Sulfate in range of 800 μg/ml, 400 μg/ml, 200 μg/ml, 100 μg/ml, and 40 μg/ml. Prior to the addition of the untreated and treated blood to the extracorporeal circuit, a blood sample was taken from the stock of diluted blood and is designated baseline control. At that time, various concentrations of Dextran Sulfate in blood will be filled into the tubing loop. Following a 2 hours rotation at 37°, tubing loop samples were transferred to 2 ml polypropylene tubes and plasma samples were prepared by immediate centrifugation at 2,000 g. […] A number of controls were put into place. From the donor we obtained serum, heparinized whole blood plasma, unrotated controls, rotated controls, and Dextran Sulfate treated samples.
Plasma aliquots for measuring sC5b-9 in ELISA. Aliquots were appropriately diluted for the measurements of sC5b-9 complex in plasma.

[2] = tested on: C5b-9 Formation in Normal Human Serum; test: Alternative pathway-dependent C5b-9 (MAC) solid phase ELISA on LPS; format: biochemical; conditions: 8% NHS, LPS coated wells
Experimental: Uncoated wells served as background controls.
Microtiter wells were coated with LPS (2 μg/50 μl per well) in VBS overnight at 4° C. Uncoated wells served as background controls. After aspirating the LPS solution, wells were treated with blocking solution and incubated with various concentrations of normal human serum.

[3] = tested on: platelets (CD62P staining); test: Platelet activation (CD62P flow cytometry) after tubing loop; format: cell-based, human
Experimental: It was expected that platelet activation would also be inhibited. […] The inhibition of platelet activation was measured using flow cytometry following CD62P staining of activated platelets.
It was expected that platelet activation will also be inhibited. […] The inhibition of platelet activation was measured using flow cytometry following CD62P staining of activated platelets.
While platelets bear C3a receptors, it is not clear how platelets were being activated. In an effort to downregulate platelet activation, we performed an experiment in which Dextran Sulfate was utilized in combination with aspirin. […] These surprising results present Dextran Sulfate as a lead complement inhibitory drug that down regulates both complement and cellular activation in heparinized whole human blood. Shown in FIGS. 10d and 10e are results from this study.
For CD62P labeling of platelets, 100 μl of diluted blood collected from the circuits were immediately incubated with 20 μl of PE-anti-CD62P antibody (Becton Dickinson) for 20 minutes at room temperature in a polypropylene tube, Then the mixture was treated with FACS Lysing Solution as described above. The microcentrifuge tubes were centrifuged at 12000. g for 5 minutes. The platelets were washed in PBS/BSA 01%, fixed in 1% paraformaldehyde and then analyzed as described above. For double labeling to concomitantly identify the platelet population, 5 μl of FITC-anti-CD61 antibody were added for incubation together with PE-anti-CD62P antibody.
(§1) For flow cytometry measurement, the PMN (containing mainly neutrophils) and platelet populations were identified by live gating based on forward- versus side-scatter parameters and specific staining with FITC-anti-CD15 antibody and FITC-anti-CD61 antibody, respectively. The background staining was gated using isotype-matched labeled antibodies. The intensity of expression of CD11b and CD62P was represented by mean fluorescence intensity (MFI).

[4] = tested on: Thrombin Generation in Citrated Human plasma; test: Thrombin generation in citrated human plasma (innovin, S2238); format: biochemical
Experimental: FIG. 7 illustrates NM33014 Inhibits Thrombin Generation in Citrated Human plasma: Citrated Human Plasma was mixed with various concentrations of Dextran Sulfate in the presence of constant concentration of S2238 (Diapharma). […] Data was recorded using Soft Max-Pro on Spectramax 190 kinetic spectramax. Data presented is from a representative experiment that was repeated three times.
Citrated human plasma (100 μl) was mixed with various concentrations of Dextran Sulfate in the presence of constant concentration of S2238 (100 μl of 2 μg/ml).

Properdin Binding to C3b = Properdin Binding to C3b (Homo sapiens, UniProt P27918); test: Inhibition of properdin binding to C3b (ELISA); conditions: C3b coated plates
Experimental: Methods: Polystyrene microtiter plates were coated with C3b in phosphate buffered saline (PBS) overnight. After aspirating the C3b solution, wells were blocked bovine serum albumin Wells without C3b coating served as background controls. […] Wells were washed PBS and C3b-bound properdin was detected by the addition of a mouse anti-human properdin antibody (Quidel, P#2 monoclonal). After washing the plate with PBS, HRP-conjugated goat anti-mouse antibody (Sigma Chemicals A2304) was added and allowed to incubate for 1 h. The plate was again rinsed thoroughly with PBS, and TMB substrate was added to each well. The data was plotted using Microcal Origin Program.
In a typical assay, polystyrene microtiter plates were coated with C3b (50 μg/50 μl/well, Advanced Research Technologies, San Diego, Calif.) in phosphate buffered saline (PBS) overnight at 4° C. After aspirating the C3b solution, wells were blocked with PBS containing 1% bovine serum albumin (BSA) (Sigma Chemical Company, St. Louis, Mo., Cat. No. A7888) for 2 hours at room temperature. Wells without C3b coating served as background controls. […] C3b-bound properdin was detected by the addition of mouse monoclonal anti-human properdin antibody (detection antibody) (Quidel, San Diego, Calif., anti-human properdin monoclonal antibody P#2, Cat. No. A235) at 1:2000 dilution in blocking solution, which was allowed to incubate for 1 hour at room temperature. […] After incubation for 10 minutes at 25° C., the reaction of TMB was quenched by the addition of 100 μl of phosphoric acid, and the plate was read at 450 nm in a microplate reader (e.g., SPECTRA MAX 190, Molecular Devices, Sunnyvale, Calif.). […]
The ability of a Dextran Sulfate to inhibit C3b-P binding was evaluated by adding varying concentrations of Dextran Sulfate to a constant concentration of properdin (2 nM). The amount of properdin bound to C3b was detected with the antibody detection system described above.

properdin = properdin (Homo sapiens, UniProt P27918); conditions: Dextran Sulfate added in solution along with properdin
Experimental: Methods: Polystyrene microtiter plates were coated with Dextran Sulfate overnight. Wells without Dextran Sulfate coating served as background controls. After removal of the Dextran Sulfate solution, the plates were washed and blocked with 1% BSA in PBS. Properdin solution with and without Dextran Sulfate was added to the appropriate wells. After this incubation, properdin solution was aspirated from the plate and the plate was washed. The wells were then incubated with anti-properdin monoclonal antibody at a 1:2000 dilution in blocking solution to allow detection of Dextran Sulfate-bound properdin. The wells were rinsed and further incubated with peroxidase-conjugated goat anti-mouse IgG followed by another wash step. Dextran Sulfate-bound properdin was detected by the addition of TMB substrate. The reaction of TMB was quenched by the addition of O-phosphoric acid and the plate read at 450 nm.

[5] = tested on: neutrophils (CD11b expression); test: Neutrophil activation (CD11b flow cytometry) after tubing loop; format: cell-based, human
From the text: Same samples of blood following the tubing loop were also subjected to neutrophil specific flow cytometry. […] Similar data was obtained with multiple donors. In the Figure are shown Rotated Control (blood sample in tubing loop), Unrotated controls (samples taken out before tubing loop). Unrotated represents the background controls.
The activation of neutrophils, monocyte and platelets were quantitated by measuring the levels of the cell-surface expression of CD11b and CD62P on neutrophils/monocytes and platelets, respectively. For CD11b labeling of neutrophils, 200 μl of whole blood collected from the circuits were immediately incubated with 20 μl of phycoerythrin (PE)-anti-CD11b antibody (Becton Dickinson, San Jose, Calif.) for 20 minutes at room temperature in a microcentrifuge tube. Then 2 ml of FACS Lysing Solution (Becton Dickinson) was added for 20 minutes at room temperature to lyse red blood cells and to fix leukocytes. The microcentrifuge tubes were centrifuged at 300 g for 5 minutes for leukocytes and 1200 g for platelets. The supernatant was aspirated and the cells resuspended in PBS for washing. The tubes were spun again, the supernatant aspirated, and the cells finally resuspended in 0.5 ml of 1% paraformaldehyde overnight prior to analysis using an BD-LSR flow cytometer (BD Biosciences). For double labeling to concomitantly identify the neutrophil population, 10 μl of fluorescein isothiocyanate (FITC)-anti-CD15 antibody (clone MMA, Becton Dickinson) were added for incubation together with PE-anti-CD11b antibody to stain neutrophils and anti-CD14 (FITC) along with PE-CD11b was used for monocytes.
Neutrophils bear both C3a and C5a receptors. Thus, prevention of C3a/C5a production should have direct effect on CD11b expression. Monocytes have been known to bear the C3a receptors. C3a produced because of complement activation is known to activate monocytes.
as §1

[6] = molecular target: T1, human properdin (or factor P) (Homo sapiens, UniProt P27918); test: Properdin binding to substrate-bound Dextran Sulfate (ELISA); conditions: substrate-bound Dextran Sulfate on microtiter plate; read-out: affinity of properdin binding to Dextran Sulfate (concentration of properdin at 50% maximal binding)
T1 construct: purchased Advanced Research Technology, San Diego, Calif; A139
Experimental: The binding of properdin appears to be specific and dose dependent. Leading to an affinity of 4 nM. […] Wells without Dextran Sulfate coating serve as background controls. […] Properdin solution was added to the appropriate wells.

Sequence of Properdin Binding to C3b (P27918 28-469): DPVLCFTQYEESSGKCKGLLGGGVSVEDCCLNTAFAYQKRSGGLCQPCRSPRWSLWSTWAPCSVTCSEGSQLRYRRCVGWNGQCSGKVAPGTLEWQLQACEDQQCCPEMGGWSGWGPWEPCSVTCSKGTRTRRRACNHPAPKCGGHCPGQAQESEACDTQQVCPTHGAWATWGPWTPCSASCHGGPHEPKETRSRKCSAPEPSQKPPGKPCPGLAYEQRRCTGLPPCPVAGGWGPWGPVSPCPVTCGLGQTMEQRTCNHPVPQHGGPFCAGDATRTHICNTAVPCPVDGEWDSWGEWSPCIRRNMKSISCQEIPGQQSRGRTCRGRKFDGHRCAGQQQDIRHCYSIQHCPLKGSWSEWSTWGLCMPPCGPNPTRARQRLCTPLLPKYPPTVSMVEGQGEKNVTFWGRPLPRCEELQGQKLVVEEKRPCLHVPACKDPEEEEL
T1 sequence (P27918 28-469): as above
Sequence of properdin (P27918 28-469): as above

Substance: Dextran Sulfate [NM3014]
- inhibition of sC5b-9 formation / complement activity in whole blood ([1]; 40 μg/ml): no inhibition; also recorded: does not inhibit complement activity
- inhibition of sC5b-9 formation / complement activity in whole blood ([1]; 100 μg/ml): complete inhibition; also recorded: inhibits complement activity; also recorded: inhibition of complement activity
- inhibition of sC5b-9 formation ([1]; 400 μg/ml): complete inhibition
- inhibition of sC5b-9 formation ([1]; 800 μg/ml): complete inhibition
- inhibition of sC5b-9 production ([1]; all doses up to 100 μg/ml): completely inhibited
- inhibition of C5b-9 (MAC) formation [2]: Inhibits C5b-9 Formation
- inhibition of C5b-9 (MAC) formation ([2]; listed as Dextran Sulfate): completely prevented
- platelet activation ([3]; 40 μg/ml, above control levels): activates platelet
- platelet activation ([3]; 100 μg/ml, above control levels): activates platelet
- platelet activation ([3]; treated samples compared to untreated controls, concentration not stated): increased CD62P staining
- platelet activation ([3]; treated samples compared to untreated controls, concentration not stated, listed as Dextran Sulfate): activates platelets
- effect on coagulation (thrombin generation) ([4]; 10 μg/ml): partial effect
- effect on coagulation (thrombin generation) ([4]; 30 μg/ml): inhibit coagulation
- effect on coagulation (thrombin generation) ([4]; 60 μg/ml): inhibit coagulation
- inhibition of properdin binding to C3b (Properdin Binding to C3b): dose-dependent and complete inhibition
- inhibition of properdin binding to C3b (Properdin Binding to C3b; listed as Dextran Sulfate): dose-dependent inhibition
- IC50 of inhibition of properdin binding to C3b (Properdin Binding to C3b; human serum containing nearly 2-5 nM properdin): ~50 µg/mL
- inhibition of properdin binding to substrate-bound Dextran Sulfate (properdin): inhibited
- inhibition of properdin binding to substrate-bound Dextran Sulfate (properdin; listed as Dextran Sulfate): dose-dependent inhibition
- inhibition of neutrophil activation ([5]; 40 μg/ml): no effect
- inhibition of neutrophil activation ([5]; 40 μg/ml, listed as Dextran Sulfate): No inhibition
- inhibition of neutrophil activation ([5]; 800 to 100 μg/ml): inhibited; also recorded: prevents neutrophil activation
- inhibition of neutrophil activation ([5]; 800 to 100 μg/ml, listed as Dextran Sulfate): inhibits neutrophil activation
- Kd [6]: 4 nM and ~4 nM
